One may read the IC50 as the concentration that inhibits the measured activity by half. A higher IC50 goes with lower potency. One may read the DC50 as the concentration giving 50% degradation. What is called Emax is the size of the effect at its maximum, as opposed to the concentration needed.

The target in series [1] is SWI/SNF-related matrix-associated actin-dependent regulator of chromatin subfamily A member 4 (Homo sapiens, UniProt P51532). As to the kind of experiment: Inhibition of SMARCA4 (unknown origin).
For series [2], the target named is SWI/SNF-related matrix-associated actin-dependent regulator of chromatin subfamily A member 2 (Homo sapiens, UniProt P51531). Briefly: Inhibition of SMARCA2 (unknown origin).
Series [3] addresses von Hippel-Lindau disease tumor suppressor/SWI/SNF-related matrix-associated actin-dependent regulator of chromatin subfamily A member 4 (Homo sapiens, UniProt P51532+P40337). As to the kind of experiment: PROTAC activity at SMARCA4/VHL1 in human HeLa cells assessed as protein degradation by Nano-Glo HiBiT lytic detection assay. The series is classed as cell-based. A general note: The HiBiT peptide binds its large partner to form an active luciferase.

In series [4] the target is von Hippel-Lindau disease tumor suppressor/SWI/SNF-related matrix-associated actin-dependent regulator of chromatin subfamily A member 2 (Homo sapiens, UniProt P51531+P40337). Briefly: PROTAC activity at SMARCA2/VHL1 in human HeLa cells assessed as protein degradation by Nano-Glo HiBiT lytic detection assay. It is filed as cell-based.
Series [5] has as its target von Hippel-Lindau disease tumor suppressor (Homo sapiens, UniProt P40337). Briefly: Inhibition of VHL (unknown origin).
The nature of series [6]: PROTAC activity at SMARCA4/E3 ubiquitin ligase (unknown origin) assessed as protein degradation. Also on record: species or system Homo sapiens.
A short description of series [7]: PROTAC activity at SMARCA2/E3 ubiquitin ligase (unknown origin) assessed as protein degradation. On the set-up: species or system Homo sapiens.
Series [8] is described as follows: Drug uptake in tumor of human NCI-H838 cells xenografted SCID mouse model at 10 mg/kg, iv measured after 24 hrs by LC-MS/MS analysis. The series is classed as ADME, organism-based, Neoplasm. The settings on record: read-out: Drug uptake. On the technique in general: In xenograft studies the graft and the host belong to different species.
Series [9] in a line: Plasma concentration in SCID mouse xenografted with human NCI-H838 cells at 10 mg/kg, iv measured after 96 hrs by LC-MS/MS analysis. The series is classed as ADME, organism-based.
Series [10] can be described thus: Drug uptake in tumor of human NCI-H838 cells xenografted SCID mouse model at 10 mg/kg, iv measured after 96 hrs by LC-MS/MS analysis. The settings on record: read-out: Drug uptake. It is filed as ADME, organism-based, Neoplasm.
Series [11] can be described thus: Plasma concentration in SCID mouse xenografted with human NCI-H838 cells at 10 mg/kg, iv measured after 24 hrs by LC-MS/MS analysis. The series is classed as ADME, organism-based.
Series [12] is filed under the species Homo sapiens. Briefly: Selectivity ratio, ratio of DC50 for PROTAC activity at SMARCA2/E3 ubiquitin ligase (unknown origin) to DC50 for PROTAC activity at SMARCA4/E3 ubiquitin ligase (unknown origin.
For series [13], the species on record is Homo sapiens. As to the kind of experiment: PROTAC activity at SMARCA2/E3 ubiquitin ligase (unknown origin) assessed as maximal protein degradation.
For series [14], the species on record is Homo sapiens. As to the kind of experiment: PROTAC activity at SMARCA4/E3 ubiquitin ligase (unknown origin) assessed as maximal protein degradation.
Series [15] in a line: Drug uptake in tumor of human NCI-H838 cells xenografted SCID mouse model at 10 mg/kg, iv measured after 48 hrs by LC-MS/MS analysis. The series is classed as ADME, organism-based, Neoplasm. The settings on record: read-out: Drug uptake.
Series [16] in a line: Plasma concentration in SCID mouse xenografted with human NCI-H838 cells at 10 mg/kg, iv measured after 168 hrs by LC-MS/MS analysis. The series is classed as ADME, organism-based. The settings on record: SCID, plasma.
A short description of series [17]: Plasma concentration in SCID mouse xenografted with human NCI-H838 cells at 10 mg/kg, iv measured after 48 hrs by LC-MS/MS analysis. It is filed as ADME, organism-based.
The nature of series [18]: Drug uptake in tumor of human NCI-H838 cells xenografted SCID mouse model at 10 mg/kg, iv measured after 168 hrs by LC-MS/MS analysis. It is filed as ADME, organism-based, Neoplasm. The settings on record: read-out: Drug uptake.

von Hippel-Lindau disease tumor suppressor/SWI/SNF-related matrix-associated actin-dependent regulator of chromatin subfamily A member 4, sequence (P51532 whole entry): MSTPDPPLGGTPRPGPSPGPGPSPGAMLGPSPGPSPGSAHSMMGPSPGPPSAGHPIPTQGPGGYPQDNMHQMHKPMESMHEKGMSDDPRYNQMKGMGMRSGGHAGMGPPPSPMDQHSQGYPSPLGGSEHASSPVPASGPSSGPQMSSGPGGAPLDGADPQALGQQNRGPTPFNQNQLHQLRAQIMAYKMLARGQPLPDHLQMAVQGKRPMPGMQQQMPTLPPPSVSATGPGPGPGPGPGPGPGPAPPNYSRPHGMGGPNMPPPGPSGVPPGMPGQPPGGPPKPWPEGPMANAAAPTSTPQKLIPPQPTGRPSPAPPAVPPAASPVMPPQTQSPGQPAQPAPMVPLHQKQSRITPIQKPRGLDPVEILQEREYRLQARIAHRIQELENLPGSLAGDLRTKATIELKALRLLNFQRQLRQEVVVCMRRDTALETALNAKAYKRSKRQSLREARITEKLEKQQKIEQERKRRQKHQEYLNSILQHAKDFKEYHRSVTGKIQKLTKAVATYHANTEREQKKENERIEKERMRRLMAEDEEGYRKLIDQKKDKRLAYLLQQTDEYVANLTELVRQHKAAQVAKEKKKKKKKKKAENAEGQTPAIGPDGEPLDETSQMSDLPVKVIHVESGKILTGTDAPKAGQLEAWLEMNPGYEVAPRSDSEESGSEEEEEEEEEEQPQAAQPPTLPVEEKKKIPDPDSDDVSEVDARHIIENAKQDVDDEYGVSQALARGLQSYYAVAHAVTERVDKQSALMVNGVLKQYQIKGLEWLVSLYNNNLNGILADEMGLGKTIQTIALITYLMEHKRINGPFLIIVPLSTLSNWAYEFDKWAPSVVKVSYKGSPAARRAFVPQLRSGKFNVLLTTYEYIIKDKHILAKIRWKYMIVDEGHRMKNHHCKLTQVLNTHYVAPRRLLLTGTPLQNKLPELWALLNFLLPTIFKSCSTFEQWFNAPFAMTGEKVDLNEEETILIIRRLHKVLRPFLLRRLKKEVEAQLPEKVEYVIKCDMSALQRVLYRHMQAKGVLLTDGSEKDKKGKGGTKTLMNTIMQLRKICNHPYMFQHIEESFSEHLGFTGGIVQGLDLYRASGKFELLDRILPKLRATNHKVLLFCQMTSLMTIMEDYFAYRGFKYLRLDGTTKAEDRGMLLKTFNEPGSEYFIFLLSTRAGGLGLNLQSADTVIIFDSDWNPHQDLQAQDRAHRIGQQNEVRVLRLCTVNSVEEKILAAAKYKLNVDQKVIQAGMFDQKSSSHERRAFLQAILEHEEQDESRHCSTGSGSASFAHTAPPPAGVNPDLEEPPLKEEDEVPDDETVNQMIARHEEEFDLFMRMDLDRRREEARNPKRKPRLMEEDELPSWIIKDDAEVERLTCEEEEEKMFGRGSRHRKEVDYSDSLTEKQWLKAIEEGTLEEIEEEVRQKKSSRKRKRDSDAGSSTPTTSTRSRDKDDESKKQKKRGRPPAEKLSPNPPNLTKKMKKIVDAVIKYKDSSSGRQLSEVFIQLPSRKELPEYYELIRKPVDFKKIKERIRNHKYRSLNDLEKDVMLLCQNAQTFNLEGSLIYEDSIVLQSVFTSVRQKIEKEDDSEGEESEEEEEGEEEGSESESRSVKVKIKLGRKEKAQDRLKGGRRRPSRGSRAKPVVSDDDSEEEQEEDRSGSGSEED
von Hippel-Lindau disease tumor suppressor/SWI/SNF-related matrix-associated actin-dependent regulator of chromatin subfamily A member 4, sequence (P40337 whole entry): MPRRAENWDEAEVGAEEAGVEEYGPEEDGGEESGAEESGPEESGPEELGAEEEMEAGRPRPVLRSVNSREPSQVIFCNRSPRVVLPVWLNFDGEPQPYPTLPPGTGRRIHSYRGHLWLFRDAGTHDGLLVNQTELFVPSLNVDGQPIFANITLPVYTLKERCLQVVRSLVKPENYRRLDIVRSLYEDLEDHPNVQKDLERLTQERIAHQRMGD
von Hippel-Lindau disease tumor suppressor/SWI/SNF-related matrix-associated actin-dependent regulator of chromatin subfamily A member 2, sequence (P51531 whole entry): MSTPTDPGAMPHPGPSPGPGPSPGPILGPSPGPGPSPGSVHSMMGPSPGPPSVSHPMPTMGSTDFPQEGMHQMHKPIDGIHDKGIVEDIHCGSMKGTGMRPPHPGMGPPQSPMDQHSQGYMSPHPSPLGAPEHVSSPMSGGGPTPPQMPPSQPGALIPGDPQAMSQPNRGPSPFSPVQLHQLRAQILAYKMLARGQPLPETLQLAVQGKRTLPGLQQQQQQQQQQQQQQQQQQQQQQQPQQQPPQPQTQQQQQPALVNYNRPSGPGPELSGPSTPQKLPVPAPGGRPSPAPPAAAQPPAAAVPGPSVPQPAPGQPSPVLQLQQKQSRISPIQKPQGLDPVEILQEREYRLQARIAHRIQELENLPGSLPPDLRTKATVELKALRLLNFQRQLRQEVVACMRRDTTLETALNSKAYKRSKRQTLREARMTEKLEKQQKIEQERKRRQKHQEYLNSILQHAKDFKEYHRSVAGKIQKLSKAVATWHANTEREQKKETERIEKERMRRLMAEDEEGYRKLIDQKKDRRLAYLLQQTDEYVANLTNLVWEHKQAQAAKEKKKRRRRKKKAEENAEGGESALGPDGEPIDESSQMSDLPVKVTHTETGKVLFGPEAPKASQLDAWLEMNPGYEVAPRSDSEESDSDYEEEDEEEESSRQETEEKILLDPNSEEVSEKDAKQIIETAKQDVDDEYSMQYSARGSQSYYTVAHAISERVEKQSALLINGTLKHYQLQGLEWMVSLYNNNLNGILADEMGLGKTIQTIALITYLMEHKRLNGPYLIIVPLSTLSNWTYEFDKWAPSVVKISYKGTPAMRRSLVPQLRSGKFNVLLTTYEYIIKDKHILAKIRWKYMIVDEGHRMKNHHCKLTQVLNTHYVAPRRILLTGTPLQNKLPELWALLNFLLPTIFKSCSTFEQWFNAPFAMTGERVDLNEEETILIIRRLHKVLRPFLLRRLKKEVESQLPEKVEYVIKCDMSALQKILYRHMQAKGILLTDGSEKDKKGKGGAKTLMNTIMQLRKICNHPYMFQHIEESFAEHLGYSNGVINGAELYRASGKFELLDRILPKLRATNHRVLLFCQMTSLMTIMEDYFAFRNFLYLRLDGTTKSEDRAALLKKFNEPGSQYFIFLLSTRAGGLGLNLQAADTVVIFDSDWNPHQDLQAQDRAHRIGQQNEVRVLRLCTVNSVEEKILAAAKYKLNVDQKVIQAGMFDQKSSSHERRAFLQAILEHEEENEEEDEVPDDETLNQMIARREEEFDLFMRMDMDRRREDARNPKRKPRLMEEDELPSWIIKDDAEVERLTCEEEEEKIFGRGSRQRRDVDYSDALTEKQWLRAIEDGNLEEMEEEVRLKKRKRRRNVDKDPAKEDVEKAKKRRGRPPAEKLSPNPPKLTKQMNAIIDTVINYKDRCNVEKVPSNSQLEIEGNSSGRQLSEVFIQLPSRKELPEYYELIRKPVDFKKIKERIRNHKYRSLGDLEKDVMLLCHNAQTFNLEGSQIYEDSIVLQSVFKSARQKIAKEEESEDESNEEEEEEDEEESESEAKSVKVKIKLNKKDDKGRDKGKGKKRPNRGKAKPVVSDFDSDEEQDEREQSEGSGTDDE
von Hippel-Lindau disease tumor suppressor/SWI/SNF-related matrix-associated actin-dependent regulator of chromatin subfamily A member 2, sequence (P40337 whole entry): as the sequence (P40337 whole entry) above
SWI/SNF-related matrix-associated actin-dependent regulator of chromatin subfamily A member 4, sequence (P51532 whole entry): as the sequence (P51532 whole entry) above
von Hippel-Lindau disease tumor suppressor, sequence (P40337 whole entry): as the sequence (P40337 whole entry) above
SWI/SNF-related matrix-associated actin-dependent regulator of chromatin subfamily A member 2, sequence (P51531 whole entry): as the sequence (P51531 whole entry) above

On to `O=c1nc2n(c3cccc(Cl)c13)-c1cc(C3CCNCC3)ccc1C21CCCCC1`, for which the values for the half-inhibitory concentration (IC50) in series [1] and in series [2] were 83 nM and 66 nM, respectively.

As to `Cc1ncsc1-c1ccc([C@H](CN2CC(C(=O)O)C2)NC(=O)[C@@H]2C[C@@H](O)CN2C(=O)[C@@H](n2cc([C@H]3CC[C@H](CN4CCC(c5ccc6c(c5)-n5c(nc(=O)c7c(Cl)cccc75)C65CCCCC5)CC4)CC3)nn2)C(C)(C)C)cc1`, the DC50 in [3] was over 1000 nM; in series [4], 228 nM.

In turn, `Cc1ncsc1-c1ccc([C@H](C)NC(=O)[C@@H]2C[C@@H](O)CN2C(=O)[C@@H](n2cc(C3CC3)nn2)C(C)(C)C)cc1` had an IC50 in series [5] of 18.9 nM.

Consider `Cc1ncsc1-c1ccc([C@H](C)NC(=O)[C@H]2C[C@@H](O)CN2C(=O)[C@@H](c2cc(N3CCC(CN4CCC(O[C@H]5C[C@H](Oc6cc(N7C8CCC7CN(c7cc(-c9ccccc9O)nnc7N)C8)ccn6)C5)CC4)CC3)no2)C(C)C)cc1`, for which the DC50 in [6] amounted to 1.1 nM; in series [7], 0.04 nM.

With `COCCOCCOC[C@H](NC(=O)[C@@H]1C[C@@H](O)CN1C(=O)[C@@H](n1cc([C@H]2CC[C@H](CN3CCC(c4ccc5c(c4)-n4c(nc(=O)c6c(Cl)cccc64)C54CCCCC4)CC3)CC2)nn1)C(C)(C)C)c1ccc(-c2scnc2C)cc1`, the concentration at 24 h came to 113 ng/mL in series [8] and 5.5 ng/mL in [11]. Moreover, the half-maximal degradation concentration (DC50) was over 1000 nM in series [3] and 0.4 nM in [4]. Besides, the concentration at 96 h in [9] came to 4.2 ng/mL; in series [10], 53 ng/mL.

Take `CC(C)(C)[C@@H](C(=O)N1C[C@H](O)C[C@H]1C(=O)N[C@@H](CN1CCOCC1)c1ccc(-c2ocnc2C(F)(F)F)cc1)n1cc([C@H]2CC[C@H](CN3CCC(c4ccc5c(c4)-n4c(nc(=O)c6c(Cl)cccc64)C54CCCCC4)CC3)CC2)nn1`: the DC50 is over 1000 nM in series [3] and 16 nM in [4].

Consider `Cc1ncsc1-c1ccc([C@H](CN2CC(C)(O)C2)NC(=O)[C@@H]2C[C@@H](O)CN2C(=O)[C@@H](n2cc([C@H]3CC[C@H](CN4CCC(c5ccc6c(c5)-n5c(nc(=O)c7c(Cl)cccc75)C65CCCCC5)CC4)CC3)nn2)C(C)(C)C)cc1`, for which the DC50 in series [3] was over 1000 nM; in series [4], 2 nM.

`Cc1cn([C@H](C(=O)N2C[C@H](O)C[C@H]2C(=O)N[C@@H](C)c2ccc(-c3scnc3C)cc2)C(C)(C)C)nn1` came in with an IC50 in series [5] of 16.1 nM.

As for `CC(C)(C)[C@@H](C(=O)N1C[C@H](O)C[C@H]1C(=O)N[C@@H](CN1CCOCC1)c1ccc(-c2ccccc2F)cc1)n1cc([C@H]2CC[C@H](CN3CCC(c4ccc5c(c4)-n4c(nc(=O)c6c(Cl)cccc64)C54CCCCC4)CC3)CC2)nn1`, the DC50 in [3] stood at 222 nM; in [4], 1 nM.

For `Cc1ncsc1-c1ccc(CNC(=O)[C@@H]2C[C@@H](O)CN2C(=O)[C@@H](NC(=O)C2(F)CC2)C(C)(C)C)c(OCCOc2ccc(CN3CCN(c4cc(-c5ccccc5O)nnc4N)CC3)cc2)c1`, the DC50 in [6] is 11 nM; in series [7], 6 nM. Besides, the Ratio in [12] was determined as 2. Further, the Emax in [13] and in [14] was over 95% in each case.

As to `Cc1nc(C)c(-c2ccc([C@H](CN3CCOCC3)NC(=O)[C@@H]3C[C@@H](O)CN3C(=O)[C@@H](n3cc([C@H]4CC[C@H](CN5CCC(c6ccc7c(c6)-n6c(nc(=O)c8c(Cl)cccc86)C76CCCCC6)CC5)CC4)nn3)C(C)(C)C)cc2)o1`, the 50% degradation concentration (DC50) in [3] is 575 nM; in series [4], 1 nM.

Consider `Cc1ccccc1-c1ccc([C@H](CN2CCOCC2)NC(=O)[C@@H]2C[C@@H](O)CN2C(=O)[C@@H](n2cc([C@H]3CC[C@H](CN4CCC(c5ccc6c(c5)-n5c(nc(=O)c7c(Cl)cccc75)C65CCCCC5)CC4)CC3)nn2)C(C)(C)C)cc1`, for which the DC50 in series [3] stood at 789 nM; in [4], 8 nM.

Take `Cc1ncsc1-c1ccc([C@H](CN2CCC(C(=O)O)CC2)NC(=O)[C@@H]2C[C@@H](O)CN2C(=O)[C@@H](n2cc([C@H]3CC[C@H](CN4CCC(c5ccc6c(c5)-n5c(nc(=O)c7c(Cl)cccc75)C65CCCCC5)CC4)CC3)nn2)C(C)(C)C)cc1`: the values for the DC50 in [3] and in [4] were over 1000 nM and 111 nM, respectively.

`COCCOCCOCCOCCOC[C@H](NC(=O)[C@@H]1C[C@@H](O)CN1C(=O)[C@@H](n1cc([C@H]2CC[C@H](CN3CCC(c4ccc5c(c4)-n4c(nc(=O)c6c(Cl)cccc64)C54CCCCC4)CC3)CC2)nn1)C(C)(C)C)c1ccc(-c2scnc2C)cc1`: the figures for the DC50 in series [3] and in series [4] were over 1000 nM and 3 nM, respectively.

In the case of `COCCOC[C@H](NC(=O)[C@@H]1C[C@@H](O)CN1C(=O)[C@@H](n1cc([C@H]2CC[C@H](CN3CCC(c4ccc5c(c4)-n4c(nc(=O)c6c(Cl)cccc64)C54CCCCC4)CC3)CC2)nn1)C(C)(C)C)c1ccc(-c2scnc2C)cc1`, the results for the concentration at 24 h in series [8] and in series [11] were 255 ng/mL and 13 ng/mL, respectively. Further, the values for the DC50 in series [3] and in series [4] were over 1000 nM and 0.4 nM, respectively. Further, the figures for the concentration at 96 h in [9] and in [10] were 8.3 ng/mL and 79 ng/mL, respectively.

Regarding `O=c1nc2n(c3cccc(Cl)c13)-c1ccc(C3CCNCC3)cc1C21CCCCC1`, the IC50 in series [1] turned out to be 58 nM; in [2] it was 43 nM.

Consider `Cc1ncsc1-c1ccc([C@H](CN2CCOCC2)NC(=O)[C@@H]2C[C@@H](O)CN2C(=O)[C@H](C2CCOCC2)n2cc([C@H]3CC[C@H](CN4CCC(c5ccc6c(c5)-n5c(nc(=O)c7c(Cl)cccc75)C65CCCCC5)CC4)CC3)nn2)cc1`, for which the results for the concentration at 48 h in series [15] and in series [17] were 491 ng/mL and 30 ng/mL, respectively. Further, the DC50 in series [3] was over 1000 nM; in [4], 0.1 nM. Besides, the concentration at 168 h worked out at 2.6 ng/mL in [16] and 65 ng/mL in [18].

On to `CC(C)(C)[C@@H](C(=O)N1C[C@H](O)C[C@H]1C(=O)N[C@@H](CN1CCOCC1)c1ccc(-c2ccccc2)cc1)n1cc([C@H]2CC[C@H](CN3CCC(c4ccc5c(c4)-n4c(nc(=O)c6c(Cl)cccc64)C54CCCCC4)CC3)CC2)nn1`, for which the results for the DC50 in [3] and in series [4] were 430 nM and 5 nM, respectively.

Turning to `Cc1ncsc1-c1ccc([C@H](CN2CC(C)(F)C2)NC(=O)[C@@H]2C[C@@H](O)CN2C(=O)[C@@H](n2cc([C@H]3CC[C@H](CN4CCC(c5ccc6c(c5)-n5c(nc(=O)c7c(Cl)cccc75)C65CCCCC5)CC4)CC3)nn2)C(C)(C)C)cc1`, the DC50 in series [3] is over 1000 nM; in series [4], 1 nM.

`Cc1ncsc1-c1ccc([C@H](CC[C@H](C)CCN2CCC(c3ccc4c(c3)n(C3CCCC3)c3nc(=O)c5c(Br)cccc5n43)CC2)NC(=O)[C@@H]2C[C@@H](O)CN2C(=O)[C@@H](NC(=O)C2(F)CC2)C(C)(C)C)cc1`: the DC50 in [6] amounted to 32 nM; in series [7] it was 1 nM. The Ratio in series [12] turned out to be 32. For the same molecule, the values for the Emax in series [13] and in series [14] were 81% and 67%, respectively.

For the origin of these results see ChEMBL document CHEMBL6096675 (J Med Chem, 2025).
